Laboratory results taken from patent US11938114B2, “Bacterial efflux pump inhibitors” (priority 2017, dated 2024).
Where a name gives a salt, the structure may show the parent alone. Marks after values point to notes of the source that are not given here.

Assays:
P. aeruginosa ATCC 27853 [1] = test: Standard EPI assay: MIC of test antibiotic (levofloxacin, cefepime) in absence and presence of EPI; assay type: cell-based, Pseudomonas aeruginosa; conditions: for Enhanced Activity in P. aeruginosa (fold enhancement of antibiotic activity): levofloxacin as antibiotic, Pseudomonas aeruginosa ATCC 27853
Method: (§1) MIC assays were conducted in accordance with Clinical and Laboratory Standards Institute (CLSI) guidelines for broth microdilution.
(§2) The EPI assay for the purposes of these studies represents a MIC assay in which the MIC of the antibiotic against the bacteria is tested in the presence of an experimental efflux pump inhibitor (EPI). […] Using serial dilutions of the EPI, its enhancement of antibiotic activity was then evaluated. […] For the evaluation of the efficacy of an EPI against bacteria that were pre-exposed to an antibiotic, the inoculum of bacteria that used was developed from a bacterial culture isolated as a single colony following exposure at […] the MIC of the antibiotic (so as to induce efflux pump expression), was to be used in combination with the EPI.
(§3) The MIC of the test antibiotic is determined in the absence and presence of sub-inhibitory concentrations of the EPI. Initially, the sub-inhibitory concentration used was ½×MIC of the EPI. […] Similar methodology was employed to examine the synergy with Escherichia coli ATCC 25922 in the presence of varied concentrations of these EPIs using clarithromycin as the antibiotic.

[2] = system: Escherichia coli ATC 25922; test: Bacterial EPI assay: MIC of clarithromycin in the presence of EPI; assay type: cell-based; conditions: clarithromycin as antibiotic
Method: as §1, §2, §3

[3] = system: P. aeruginosa ATCC 27853 pre-exposed to cefepime; test: Pre-exposure bacterial EPI assay; assay type: cell-based, Pseudomonas aeruginosa
Method: as §2
The principle underlying this pre-exposure is that exposure of the bacteria to sub-inhibitory concentrations of the test antibiotic will induce expression of efflux pumps, if any, and may represent the scenario in vivo more accurately.

[4] = system: P. aeruginosa [ATCC 27853]; test: Mouse septicemia model of infection; assay type: in vivo, Pseudomonas aeruginosa; conditions: mice, Experiment #489, cefepime, 10 mg/ml b.i.d.
Method: A general method for the in vivo assessment of bacterial EPIs is complicated by the fact that that both the antibiotic and the EPI need to be present for synergy to be achieved. A general method was discovered that has proven to be effective in establishing the relative efficacy of bacterial EPIs in a mouse septicemia model. The bacterial EPI is administered initially intravenously to mice with septicemia, followed 5 minutes later by the intravenous administration or oral administration of the antibiotic. A second administration of the EPI is then administered subcutaneously after an additional 5 minutes to act as a booster, followed by the final administration of the antibiotic either intravenously or orally after the second administration of the EPI. […] In a few instances, a second regiment of both EPI and antibiotic as administered on day 1 was required after 24 hours to affect cures.
Determination of the in vivo efficacy of bacterial efflux pump inhibitors (EPIs) can be efficiently determined using a mouse septicemia model of infection. The systemic infection is initiated by a 500 ul intraperitoneal injection of an inoculum containing bacteria (such as P. aeruginosa [ATCC 27853]) at a concentration of approximately 5×10^5 cells in 5% mucin in Swiss Webster female mice. […]

P. aeruginosa ATCC 27853 [5] = test: Intrinsic MIC assay (CLSI broth microdilution); assay type: cell-based; conditions: Pseudomonas aeruginosa, ATCC27853, read-out: intrinsic MIC of the EPI
Method: as §1
The intrinsic MIC of the experimental EPIs was tested with the method described. The 2-fold serial dilution begin with 100 μg/mL of tested compound in the first column of the 96-well plates.
The following Gram-negative bacterial strains were included in these assays: • Escherichia coli ATCC 25922 • Klebsiella pneumoniae ATCC 13883 and ATCC 10031 • Pseudomonas aeruginosa ATCC 27853. • Acinetobacter baumannii ATCC 19606 Bacterial EPI Assays Tier 1 Testing

[6] = P. aeruginosa ATCC 27853, 6.25 μg/mL of the EPI

Structure (SMILES): Cl.Cl.NC[C@@H]1CNC(CNC(=O)c2cc(-c3ccc(C(F)(F)F)cc3)cc(-c3ccc(C(F)(F)F)cc3)c2)C1 (stereo in doubt) [Example 9, N-(((2R,4R)-4-(Aminomethyl)pyrrolidin-2-yl)methyl)-4,4″-bis(trifluoromethyl)-[1,1′:3′,1″-terphenyl]-5′-carboxamide hydrochloride salt]
- Enhanced Activity in P. aeruginosa (fold enhancement of antibiotic activity) (P. aeruginosa ATCC 27853 [1]; EPI at 12.5 μg): 4x/12.5 μg

Structure (SMILES): CC(C)(N)C1CN[C@H](CNC(=O)c2cc(-c3ccc(F)cc3)cc(-c3ccc(F)cc3)c2)C1.Cl.Cl (stereo partly drawn) [Example 3, N-(((2S)-4-(2-aminopropan-2-yl)pyrrolidin-2-yl)methyl)-4,4″-difluoro-[1,1′:3′, 1″-terphenyl]-5′-carboxamide dihydrochloride]
- Enhanced Activity in E. coli (fold enhancement of antibiotic activity) ([2]; EPI at 12.5 μg): 1024x/12.5 μg
- Enhanced Activity in P. aeruginosa (fold enhancement of antibiotic activity) (P. aeruginosa ATCC 27853 [1]; EPI at 12.5 μg): 32x/12.5 μg

Structure (SMILES): NC[C@@H]1C[C@H](Oc2cc(-c3ccc(F)cc3)cc(-c3ccc(F)cc3)c2)CN1 [Example 8, ((2S,4S)-4-((4,4″-difluoro-[1,1′:3′,1″-terphenyl]-5′-yl)oxy)pyrrolidin-2-yl)methanamine]
- Enhanced Activity in E. coli (fold enhancement of antibiotic activity) ([2]; EPI at 6.25 μg): 2x/6.25 μg
- Enhanced Activity in P. aeruginosa (fold enhancement of antibiotic activity) (P. aeruginosa ATCC 27853 [1]; EPI at 12.5 μg): 1x/12.5 μg

Structure (SMILES): CN1C[C@H](CN)C[C@H]1CNC(=O)c1cc(-c2ccc(F)cc2)cc(-c2ccc(F)cc2)c1 [Example 11, N-(((2S,4S)-4-(aminomethyl)-1-methylpyrrolidin-2-yl)methyl)-4,4″-difluoro-[1,1′:3′,1″-terphenyl]-5′-carboxamide hydrochloride salt]
- Enhanced Activity in E. coli (fold enhancement of antibiotic activity) ([2]; EPI at 6.25 μg): 128x/6.25 μg

Structure (SMILES): CN(C)C[C@H]1CN[C@H](CNC(=O)c2cc(-c3ccc(F)cc3)cc(-c3ccc(F)cc3)c2)C1 [Example 12, N-(((2S,4R)-4-((dimethylamino)methyl)pyrrolidin-2-yl)methyl)-4,4″-difluoro-[1,1′:3′,1″-terphenyl]-5′-carboxamide hydrochloride salt]
- Enhanced Activity in E. coli (fold enhancement of antibiotic activity) ([2]; EPI at 25 μg): 2x/25 μg

Structure (SMILES): CNC[C@@H]1CN[C@H](CNC(=O)c2cc(-c3ccc(F)cc3)cc(-c3ccc(F)cc3)c2)C1 [Example 14, 4,4″-difluoro-N-(((2S,4R)-4-((methylamino)methyl)pyrrolidin-2-yl)methyl)-[1,1′:3′,1″-terphenyl]-5′-carboxamide hydrochloride salt]
- Enhanced Activity in E. coli (fold enhancement of antibiotic activity) ([2]; EPI at 6.25 μg): 64x/6.25 μg
- Enhanced Activity in P. aeruginosa (fold enhancement of antibiotic activity) (P. aeruginosa ATCC 27853 [1]; EPI at 12.5 μg): 32x/12.5 μg

Structure (SMILES): CO/N=C(\C(=O)N[C@@H]1C(=O)N2C(C(=O)[O-])=C(C[N+]3(C)CCCC3)CS[C@H]12)c1csc(N)n1 [cefepime, reference compound]
- increase of MIC of cefepime against pre-exposed versus unexposed P. aeruginosa ([3]; pre-exposed to cefepime, no EPI): 8 fold
- % Survival (72 hr) Antibiotic Only ([4]; 250 ul): 0%****

Structure (SMILES): Cl.Cl.NC[C@@H]1CN[C@H](COc2cc(-c3ccc(F)cc3)cc(-c3ccc(F)cc3)c2)C1 [Example 6, ((3R,5S)-5-(((4,4″-difluoro-[1,1′:3′,1″-terphenyl]-5′-yl)oxy)methyl)pyrrolidin-3-yl)methanamine dihydrochloride]
- Enhanced Activity in E. coli (fold enhancement of antibiotic activity) ([2]; EPI at 3.125 μg): 32x/3.125 μg
- Enhanced Activity in P. aeruginosa (fold enhancement of antibiotic activity) (P. aeruginosa ATCC 27853 [1]; EPI at 6.25 μg): 1x/6.25 μg

Structure (SMILES): CC(C)(C(=O)NC[C@@H]1C[C@H](CN)CN1)c1cc(-c2ccc(F)cc2)cc(-c2ccc(F)cc2)c1 [Example 10, N-(((2S,4R)-4-(aminomethyl)pyrrolidin-2-yl)methyl)-2-(4,4″-difluoro-[1,1′:3′,1″-terphenyl]-5′-yl)-2-methylpropanamide hydrochloride salt]
- Enhanced Activity in E. coli (fold enhancement of antibiotic activity) ([2]; EPI at 6.25 μg): 512x/6.25 μg

Structure (SMILES): CC(C)(C(=O)NC[C@@H]1C[C@H](N)CN1)c1cc(-c2ccc(F)cc2)cc(-c2ccc(F)cc2)c1.Cl.Cl [Example 2]
- Enhanced Activity in E. coli (fold enhancement of antibiotic activity) ([2]; EPI at 6.25 μg): 8x/6.25 μg

Structure (SMILES): Cl.Cl.NC[C@H]1CN[C@H](COc2cc(-c3ccc(F)cc3)cc(-c3ccc(F)cc3)c2)C1 [Example 7]
- Enhanced Activity in E. coli (fold enhancement of antibiotic activity) ([2]; EPI at 3.125 μg): 64x/3.125 μg
- Enhanced Activity in P. aeruginosa (fold enhancement of antibiotic activity) (P. aeruginosa ATCC 27853 [1]; EPI at 6.25 μg): 2x/6.25 μg

Structure (SMILES): Cl.Cl.N[C@@H]1CN[C@H](CNC(=O)c2cc(-c3ccc(F)cc3)cc(-c3ccc(F)cc3)c2)C1 [Example 1, N-(((2S, 4S)-4-aminopyrrolidin-2-yl)methyl)-4,4″-difluoro-[1, 1′:3′, 1′-terphenyl]-5′-carboxamide dihydrochloride]
- Enhanced Activity in E. coli (fold enhancement of antibiotic activity) ([2]; EPI at 6.25 μg): 64x/6.25 μg
- Enhanced Activity in P. aeruginosa (fold enhancement of antibiotic activity) (P. aeruginosa ATCC 27853 [1]; EPI at 6.25 μg): 2x/6.25 μg

Structure (SMILES): Cl.Cl.NC[C@@H]1CN[C@H](CNC(=O)c2cc(-c3ccc(F)cc3)cc(-c3ccc(F)cc3)c2)C1 [Example 4, N-(((2S,4R)-4-(aminomethyl)pyrrolidin-2-yl)methyl)-4,4″-difluoro-[1,1′:3′,1″-terphenyl]-5′-carboxamide dihydrochloride]
- Enhanced Activity in E. coli (fold enhancement of antibiotic activity) ([2]; EPI at 3.125 μg): 512x/3.125 μg
- MIC of levofloxacin in the presence of EPI (P. aeruginosa ATCC 27853 [1]; P. aeruginosa ATCC 27853, 6.25 μg/mL (½×MIC) of the EPI): 0.016 µg/mL
- MIC of cefepime in the presence of EPI (P. aeruginosa ATCC 27853 [1]; [6]): 0.125 µg/mL
- decrease of the MIC of cefepime relative to absence of EPI (P. aeruginosa ATCC 27853 [1]; [6]): 16 fold
- reduction of the MIC of levofloxacin relative to absence of EPI (P. aeruginosa ATCC 27853 [1]; [6]): 64 fold
- Enhanced Activity in P. aeruginosa (fold enhancement of antibiotic activity) (P. aeruginosa ATCC 27853 [1]; EPI at 6.25 μg): 64x/6.25 μg
- MIC (P. aeruginosa ATCC 27853 [5]): 12.5 µg/mL
- MIC of cefepime against cefepime-exposed P. aeruginosa in the presence of EPI ([3]; 6.25 μg/mL of the EPI): 0.25 µg/mL
- reduction of MIC of cefepime against cefepime-exposed P. aeruginosa ([3]; 6.25 μg/mL of the EPI): 64 fold
- % Survival (72 hr) Antibiotic + EPI ([4]; 250 ul + Example 4, 2.0 mg/ml b.i.d.): 100%

Structure (SMILES): Cl.Cl.NC[C@H]1CN[C@H](CNC(=O)c2cc(-c3ccc(F)cc3)cc(-c3ccc(F)cc3)c2)C1 [Example 5, N-(((2S,4S)-4-(aminomethyl)pyrrolidin-2-yl)methyl)-4,4″-difluoro-[1,1′:3′,1″-terphenyl]-5′-carboxamide dihydrochloride]
- Enhanced Activity in E. coli (fold enhancement of antibiotic activity) ([2]; EPI at 6.25 μg): 1024x/6.25 μg
- Enhanced Activity in P. aeruginosa (fold enhancement of antibiotic activity) (P. aeruginosa ATCC 27853 [1]; EPI at 6.25 μg): 32x/6.25 μg
